Data published in ChEMBL document CHEMBL5543142, “Discovery of YFJ-36: Design, Synthesis, and Antibacterial Activities of Catechol-Conjugated β-Lactams against Gram-Negative Bacteria” (J Med Chem, 2024).

How the values were obtained:
Acinetobacter baumannii [1] = assay: Antibacterial activity against OXA-23 producing multidrug-resistant Acinetobacter baumannii clinical isolate 17-3 assessed as inhibition of bacterial growth incubated for 18 to 20 hrs by two fold serial dilution assay; format: functional; conditions: time 18-20 hrs
Klebsiella pneumoniae [2] = assay: Antibacterial activity against KPC-2 producing multidrug-resistant Klebsiella pneumoniae clinical isolate 15-1 assessed as inhibition of bacterial growth incubated for 18 to 20 hrs by two fold serial dilution assay; format: functional; conditions: time 18-20 hrs
Pseudomonas aeruginosa [3] = assay: Antibacterial activity against IMP-4 producing multidrug-resistant Pseudomonas aeruginosa clinical isolate 19-17 assessed as inhibition of bacterial growth incubated for 18 to 20 hrs by two fold serial dilution assay; format: functional; conditions: time 18-20 hrs
Acinetobacter baumannii [4] = assay: Antibacterial activity against OXA-23 producing multidrug-resistant Acinetobacter baumannii clinical isolate 17-2 assessed as inhibition of bacterial growth incubated for 18 to 20 hrs by two fold serial dilution assay; format: functional; conditions: time 18-20 hrs
Klebsiella pneumoniae [5] = assay: Antibacterial activity against KPC-2 producing multidrug-resistant Klebsiella pneumoniae clinical isolate 15-3 assessed as inhibition of bacterial growth incubated for 18 to 20 hrs by two fold serial dilution assay; format: functional; conditions: time 18-20 hrs
Klebsiella pneumoniae [6] = assay: Antibacterial activity against KPC-2 producing multidrug-resistant Klebsiella pneumoniae clinical isolate 15-2 assessed as inhibition of bacterial growth incubated for 18 to 20 hrs by two fold serial dilution assay; format: functional; conditions: time 18-20 hrs
Pseudomonas aeruginosa [7] = assay: Antibacterial activity against IMP-4 producing multidrug-resistant Pseudomonas aeruginosa clinical isolate 19-5 assessed as inhibition of bacterial growth incubated for 18 to 20 hrs by two fold serial dilution assay; format: functional; conditions: time 18-20 hrs
Escherichia coli [8] = assay: Antibacterial activity against ESBL-producing multidrug-resistant Escherichia coli clinical isolate 14-2 assessed as inhibition of bacterial growth incubated for 18 to 20 hrs by two fold serial dilution assay; format: functional; conditions: time 18-20 hrs
Klebsiella pneumoniae [9] = assay: Antibacterial activity against KPC-2 producing multidrug-resistant Klebsiella pneumoniae clinical isolate 15-5 assessed as inhibition of bacterial growth incubated for 18 to 20 hrs by two fold serial dilution assay; format: functional; conditions: time 18-20 hrs
Escherichia coli [10] = assay: Antibacterial activity against ESBL-producing multidrug-resistant Escherichia coli clinical isolate 14-1 assessed as inhibition of bacterial growth incubated for 18 to 20 hrs by two fold serial dilution assay; format: functional; conditions: time 18-20 hrs
Escherichia coli [11] = assay: Antibacterial activity against ESBL-producing multidrug-resistant Escherichia coli clinical isolate 14-4 assessed as inhibition of bacterial growth incubated for 18 to 20 hrs by two fold serial dilution assay; format: functional; conditions: time 18-20 hrs
Pseudomonas aeruginosa [12] = assay: Antibacterial activity against IMP-4 producing multidrug-resistant Pseudomonas aeruginosa clinical isolate 17-13 assessed as inhibition of bacterial growth incubated for 18 to 20 hrs by two fold serial dilution assay; format: functional; conditions: time 18-20 hrs
Escherichia coli [13] = assay: Antibacterial activity against Escherichia coli ATCC35218 assessed as inhibition of bacterial growth incubated for 18 to 20 hrs by two fold serial dilution assay; format: functional; conditions: time 18-20 hrs
Pseudomonas aeruginosa [14] = assay: Antibacterial activity against IMP-4 producing multidrug-resistant Pseudomonas aeruginosa clinical isolate 19-1 assessed as inhibition of bacterial growth incubated for 18 to 20 hrs by two fold serial dilution assay; format: functional; conditions: time 18-20 hrs
[15] = MRT in ICR mouse at 20 mg/kg,iv administration measured upto 6 hrs by LC-MS/MS analysis; format: ADME, organism-based; conditions: in vivo
Acinetobacter baumannii [16] = assay: Antibacterial activity against OXA-23 producing multidrug-resistant Acinetobacter baumannii clinical isolate 15-4 assessed as inhibition of bacterial growth incubated for 18 to 20 hrs by two fold serial dilution assay; format: functional; conditions: time 18-20 hrs
[17] = Half life in ICR mouse at 20 mg/kg,iv administration measured upto 6 hrs by LC-MS/MS analysis; format: ADME, organism-based; conditions: in vivo
Acinetobacter baumannii [18] = assay: Antibacterial activity against OXA-23 producing multidrug-resistant Acinetobacter baumannii clinical isolate 15-2 assessed as inhibition of bacterial growth incubated for 18 to 20 hrs by two fold serial dilution assay; format: functional; conditions: time 18-20 hrs
[19] = AUC (0 to infinity) in ICR mouse at 20 mg/kg,iv administration measured upto 6 hrs by LC-MS/MS analysis; format: ADME, organism-based; conditions: in vivo
Acinetobacter baumannii [20] = assay: Antibacterial activity against OXA-23 producing multidrug-resistant Acinetobacter baumannii clinical isolate 15-1 assessed as inhibition of bacterial growth incubated for 18 to 20 hrs by two fold serial dilution assay; format: functional; conditions: time 18-20 hrs
Acinetobacter baumannii [21] = assay: Antibacterial activity against OXA-23 producing multidrug-resistant Acinetobacter baumannii clinical isolate 15-5 assessed as inhibition of bacterial growth incubated for 18 to 20 hrs by two fold serial dilution assay; format: functional; conditions: time 18-20 hrs
[22] = Volume of distribution at steady state in ICR mouse at 20 mg/kg,iv administration measured upto 6 hrs by LC-MS/MS analysis; format: ADME, organism-based; conditions: in vivo, read-out: Vdss
Acinetobacter baumannii [23] = assay: Antibacterial activity against OXA-23 producing multidrug-resistant Acinetobacter baumannii clinical isolate 15-3 assessed as inhibition of bacterial growth incubated for 18 to 20 hrs by two fold serial dilution assay; format: functional; conditions: time 18-20 hrs
[24] = Clearance in ICR mouse at 20 mg/kg,iv administration measured upto 6 hrs by LC-MS/MS analysis; format: ADME, organism-based; conditions: in vivo
Pseudomonas aeruginosa [25] = assay: Antibacterial activity against IMP-4 producing multidrug-resistant Pseudomonas aeruginosa clinical isolate 15-1 assessed as inhibition of bacterial growth incubated for 18 to 20 hrs by two fold serial dilution assay; format: functional; conditions: time 18-20 hrs
Pseudomonas aeruginosa [26] = assay: Antibacterial activity against Pseudomonas aeruginosa ATCC 27853 assessed as inhibition of bacterial growth incubated for 18 to 20 hrs by two fold serial dilution assay; format: functional; conditions: time 18-20 hrs
Pseudomonas aeruginosa [27] = assay: Antibacterial activity against IMP-4 producing multidrug-resistant Pseudomonas aeruginosa clinical isolate 15-4 assessed as inhibition of bacterial growth incubated for 18 to 20 hrs by two fold serial dilution assay; format: functional; conditions: time 18-20 hrs
Pseudomonas aeruginosa [28] = assay: Antibacterial activity against IMP-4 producing multidrug-resistant Pseudomonas aeruginosa clinical isolate 15-5 assessed as inhibition of bacterial growth incubated for 18 to 20 hrs by two fold serial dilution assay; format: functional; conditions: time 18-20 hrs

SMILES | MIC (Klebsiella pneumoniae [2]) [µg/mL] | MIC (Pseudomonas aeruginosa [3]) [µg/mL] | MIC (Klebsiella pneumoniae [5]) [µg/mL] | MIC (Klebsiella pneumoniae [6]) [µg/mL] | MIC (Escherichia coli [8]) [µg/mL] | MIC (Klebsiella pneumoniae [9]) [µg/mL] | MIC (Escherichia coli [10]) [µg/mL] | MIC (Escherichia coli [11]) [µg/mL] | MIC (Pseudomonas aeruginosa [12]) [µg/mL] | MIC (Escherichia coli [13]) [µg/mL] | MRT [15] [min] | MIC (Acinetobacter baumannii [16]) [µg/mL] | half-life [17] [min] | MIC (Acinetobacter baumannii [18]) [µg/mL] | AUC(0-inf) [19] [ng·h/mL] | MIC (Acinetobacter baumannii [20]) [µg/mL] | MIC (Acinetobacter baumannii [21]) [µg/mL] | Vd [22] [L/kg] | MIC (Acinetobacter baumannii [23]) [µg/mL] | clearance [24] [mL/min/kg] | other results
Nc1nc(/C(=N/OC(C(=O)O)C2CCC(F)(F)CC2)C(=O)N[C@@H]2C(=O)N3C(C(=O)O)=C(CSCCNC(=O)c4ccc(O)c(O)c4Cl)CS[C@H]23)ns1.O=C(O)C(F)(F)F (stereo partly drawn) | 16 | 1 | 16 | 32 | 4 | 16 | 1 | 1 | 0.5 | 0.25 | – | – | – | – | – | – | – | – | – | – | MIC (Acinetobacter baumannii [1]): 0.25 µg/mL; MIC (Acinetobacter baumannii [4]): 0.25 µg/mL; MIC (Pseudomonas aeruginosa [7]): 4 µg/mL; MIC (Pseudomonas aeruginosa [14]): 8 µg/mL
CC1CCC(C(O/N=C(\C(=O)N[C@@H]2C(=O)N3C(C(=O)O)=C(CSCCNC(=O)c4ccc(O)c(O)c4Cl)CS[C@H]23)c2csc(N)n2)C(=O)O)CC1.O=C(O)C(F)(F)F (stereo partly drawn) | 1 | 0.5 | 1 | 0.5 | 0.5 | 0.5 | 0.5 | 0.125 | 0.5 | ≤ 0.03 | 35.4 | 4 | 139 | 8 | 5760 | 4 | 8 | 2.37 | 4 | 60.3 | –
Nc1nc(/C(=N/OC(C(=O)O)C2CCCCC2)C(=O)N[C@@H]2C(=O)N3C(C(=O)O)=C(CSCCNC(=O)c4ccc(O)c(O)c4Cl)CS[C@H]23)c(Cl)s1.O=C(O)C(F)(F)F (stereo partly drawn) | 1 | 0.5 | 2 | 1 | 0.5 | 1 | 0.25 | 0.5 | 0.25 | 0.125 | – | 2 | – | 2 | – | 4 | 4 | – | 4 | – | MIC (Acinetobacter baumannii [1]): 2 µg/mL; MIC (Acinetobacter baumannii [4]): 1 µg/mL; MIC (Pseudomonas aeruginosa [7]): 1 µg/mL
Cl.Nc1nc(/C(=N/OC(C(=O)O)C2CCC(F)(F)CC2)C(=O)N[C@@H]2C(=O)N3C(C(=O)O)=C(CSCCNC(=O)c4ccc(O)c(O)c4Cl)CS[C@H]23)cs1 (stereo partly drawn) | – | – | – | – | – | – | – | – | – | – | 18.6 | – | 46.8 | – | 6340 | – | – | 0.997 | – | 54 | –
Cc1ccc(S(=O)(=O)O)cc1.Nc1nc(/C(=N/OC(C(=O)O)C2CCC(F)(F)CC2)C(=O)N[C@@H]2C(=O)N3C(C(=O)O)=C(CSCCNC(=O)c4ccc(O)c(O)c4Cl)CS[C@H]23)cs1 (stereo partly drawn) | – | – | – | – | – | – | – | – | – | – | 12 | – | 45 | – | 11600 | – | – | 0.402 | – | 31.3 | –
CC(C)(O/N=C(\C(=O)N[C@@H]1C(=O)N2C(C(=O)O)=C(CS[C@H]3CC[C@@H](NC(=O)c4ccc(O)c(O)c4Cl)CC3)CS[C@H]12)c1csc(N)n1)C(=O)O.O=C(O)C(F)(F)F | 4 | – | 4 | 4 | 4 | 8 | 0.125 | 1 | – | – | – | 32 | – | 32 | – | 32 | 32 | – | 32 | – | MIC (Pseudomonas aeruginosa [25]): 1 µg/mL; MIC (Pseudomonas aeruginosa [26]): 8 µg/mL; MIC (Pseudomonas aeruginosa [27]): 1 µg/mL; MIC (Pseudomonas aeruginosa [28]): 2 µg/mL
